Reference: publication PMC7221733, “Synthetic Kavalactone Analogues with Increased Potency and Selective Anthelmintic Activity against Larvae of Haemonchus contortus In Vitro” (Molecules, 2020)
Like-named read-outs stand apart in the source and are kept apart here.

Tests used:
[1] = test system: HepG2 human hepatoma cells; assay: Cytotoxicity on HepG2 cells (CellTiter-Glo cell viability assay); assay type: cell-based; conditions: for EC50: Homo sapiens, read-out: HepG2 EC50
Method: Synthesized compounds were tested for their toxicity on HepG2 human hepatoma cells, as described previously. In brief, compounds were tested in a 10-point, two-fold dilution series, commencing at 40 µM. The cells were cultured in Dulbecco’s modified Eagle’s medium (DMEM) supplemented with 10% fetal bovine serum (FBS) and incubated at 37 °C with 5% v/v CO2. The cells were seeded into 384-well plates at a density of 1 × 10^3 per well and exposed to compounds for 48 h. The toxicity was determined by CellTiter-Glo® cell viability assay (Promega, USA), which assessed the number of viable cells based on the quantity of ATP present. Matched percentages of etoposide and DMSO were used as positive and negative (untreated) controls, respectively. The EC50 values were determined as described in Section 3.3, and the selectivity index was calculated by dividing the EC50 value for HepG2 cells by the IC50 value for H. contortus.

[2] = test system: MCF10A, non-tumorigenic breast epithelial cells; set-up: method as in PMID 30739078; conditions: in vitro cell proliferation assay; cited from earlier work
[3] = test system: Haemonchus contortus; assay: Larval development assay (xL3 to L4) of H. contortus in vitro; assay type: cell-based; conditions: for IC50: read-out: Inhibition of Larval Development in H. Contortus IC50 (µM) ± SEM; for Anthelmintic activity in the larval development assay (in words): dilution series commencing at 100 µM
Method: The Haecon-5 strain of H. contortus was produced in experimental sheep, according to animal ethics guidelines of the University of Melbourne, Australia (permit no.1413429). The feces were collected from the infected sheep and incubated at 27 °C for 1 week, allowing first-stage larvae to emerge and develop to third-stage larvae (L3s). L3s were collected and stored at 10 °C until used in experiments; xL3s were prepared by treating L3s with 0.15% v/v sodium hypochlorite (NaClO) and incubated for 20 min at 38 °C, and subsequently washed five times with sterile physiological saline (pH 7.0). These xL3s were immediately incubated at 38 °C in sterile Luria Bertani (LB) broth supplemented with 100 IU/ml of penicillin, 100 µg/ml of streptomycin, and […] of amphotericin B (fungizone, antibiotic—antimycotic; cat. no. 15240-062; Gibco, Thermo Fisher Scientific, Waltham, MA, USA); this supplemented medium was designated as LB*.
In our previous study, larval development-inhibition results guided the fractionation of the active extract from P. methysticum, and the findings were consistent with subsequent potency assessments of the purified kavalactones. Therefore, the developmental inhibition assay for H. contortus was used to determine the activity/potency of the kavalactone analogues synthesized in the present study. In brief, all synthesized compounds as well as monepantel (Zolvix, Elanco Animal Health, Australia) and moxidectin (Cydectin, Virbac, France) (two positive controls) were individually tested for inhibition of larval development in H. contortus using an 18-point, two-fold dilution series, commencing at 100 µM. Compound solutions (in dimethyl sulfoxide [DMSO] plus LB*) were prepared and added to 96-well flat bottom plates to achieve the desired final concentrations in a final volume of 100 µl, and xL3s (as described in Section 3.2) were dispensed into individual wells at a density of 300 worms per well (in 50 µl of LB*). Matched concentrations of DMSO (0.25% in LB*) were used as negative (untreated) controls. The plates were incubated (10% v/v CO2) at 38 °C for 7 days. Larvae in each well were fixed with 50 µl of 1% iodine at 7 days, and the number of xL3s that developed to L4s in each well was counted by light microscopic examination at 20× magnification. L4s were differentiated from xL3s by their well-developed mouth and pharynx characteristics. The assay was repeated three times on different days using three replicates in each assay. The half-maximum inhibitory concentration (IC50) of each compound was determined by fitting the log10-transformed concentration to a variable slope four-parameter model using the GraphPad Prism (v. 8.3.1) software (GraphPad Software Inc., San Diego, CA, USA).

[4] = test system: Haemonchus contortus; set-up: method as in PMID 30739078; conditions: cited from earlier work; for Phenotype induced in treated larvae / IC50: previous study; for IC50: purchased / isolated kavalactones, read-out: IC50 for inhibition of larval (L4) development of H. contortus
[5] = HepG2, 48 h exposure, CellTiter-Glo, highest concentration 40 µM
[6] = Haemonchus contortus, 168 h, xL3 to L4 development, 7 days, synthesized compounds, mean ± SEM
[7] = xL3 to L4 development, 7 days, synthesized compounds, mean ± SEM

SMILES: CC(C)C[C@H](NC(=O)[C@H](Cc1ccccc1)NC(=O)c1cnccn1)B(O)O [Bortezomib, reference compound]
- EC50 [1, 5]: 0.01 µM

SMILES: COc1cc(/C=C/c2ccccc2)oc(=O)c1 [Compound 1, desmethoxyyangonin]
- EC50 [1, 5]: > 40 µM
- Toxicity on MCF10A cells [2]: limited toxicity
- IC50 [3, 6]: 37.1 ± 3.1 µM
- Exposure time sufficient to induce the Evi phenotype ([4]; H. contortus): 30 h
- Phenotype induced in treated larvae [4]: lethal ‘evisceration’ (Evi) phenotype
- IC50 [4]: 31.7 µM

SMILES: COc1ccc(/C=C/c2cc(OC)cc(=O)o2)cc1 [Compound 2, yangonin]
- EC50 [1, 5]: > 40 µM
- Toxicity on MCF10A cells [2]: limited toxicity
- IC50 [3, 6]: 15 ± 3 µM
- Phenotype induced in treated larvae [4]: lethal ‘evisceration’ (Evi) phenotype
- IC50 [4]: 23.7 µM

SMILES: COc1cc(/C=C/c2ccc(OC(F)(F)F)cc2)oc(=O)c1 [Compound 3]
- EC50 [1, 5]: > 40 µM
- Selectivity index (HepG2 EC50 / H. contortus IC50) ([1]; against H. contortus): > 20 fold
- IC50 [3, 6]: 1.9 ± 0.1 µM

SMILES: COc1cc(/C=C/c2ccc(OC(F)F)cc2)oc(=O)c1 [Compound 4]
- EC50 [1, 5]: > 40 µM
- IC50 [3, 6]: 8.9 ± 0.3 µM

SMILES: COc1cc(/C=C/c2ccc(Oc3ccccc3)cc2)oc(=O)c1 [Compound 5]
- EC50 [1, 5]: > 40 µM
- IC50 [3, 6]: 5.2 ± 2.2 µM

SMILES: COc1cc(/C=C/c2ccc(Cl)cc2)oc(=O)c1 [Compound 6]
- EC50 [1, 5]: > 40 µM
- IC50 [3, 6]: 12.4 ± 3.5 µM

SMILES: COc1cc(/C=C/c2ccc(C)cc2)oc(=O)c1 [Compound 7]
- EC50 [1, 5]: > 40 µM
- IC50 [3, 6]: 12.6 ± 2.1 µM

SMILES: COc1cc(/C=C/c2ccc(C(F)(F)F)cc2)oc(=O)c1 [Compound 8]
- EC50 [1, 5]: > 40 µM
- IC50 [3, 6]: 10.3 ± 1.2 µM

SMILES: COc1cc(/C=C/c2ccc(N(C)C)cc2)oc(=O)c1 [Compound 9]
- EC50 [1, 5]: > 40 µM
- IC50 [3, 6]: > 50 µM
- Anthelmintic activity in the larval development assay (in words) [3]: inactive at the highest concentration tested

SMILES: COc1cc(/C=C/c2ccc(N3CCOCC3)cc2)oc(=O)c1 [Compound 10]
- EC50 [1, 5]: > 40 µM
- IC50 [3, 6]: 6.4 ± 0.2 µM

SMILES: COc1cc(/C=C/c2ccc(N3CCNCC3)cc2)oc(=O)c1 [Compound 11]
- EC50 [1, 5]: > 40 µM
- IC50 [3, 6]: > 100 µM
- Anthelmintic activity in the larval development assay (in words) [3]: inactive

SMILES: COC(=O)c1ccc(/C=C/c2cc(OC)cc(=O)o2)cc1 [Compound 12]
- EC50 [1, 5]: > 40 µM
- IC50 [3, 6]: > 100 µM
- Anthelmintic activity in the larval development assay (in words) [3]: inactive at the highest concentration tested

SMILES: COc1cc(/C=C/c2ccc(C#N)cc2)oc(=O)c1 [Compound 13]
- EC50 [1, 5]: > 40 µM
- IC50 [3, 6]: > 100 µM
- Anthelmintic activity in the larval development assay (in words) [3]: inactive at the highest concentration tested

SMILES: COc1cc(/C=C/c2ccccc2OC)oc(=O)c1 [Compound 14]
- EC50 [1, 5]: > 40 µM
- IC50 [3, 6]: 61.9 µM
- IC50 [3, 7]: > 100 µM

SMILES: COc1cccc(/C=C/c2cc(OC)cc(=O)o2)c1 [Compound 15]
- EC50 [1, 5]: > 40 µM
- IC50 [3, 6]: > 100 µM
- IC50 [3, 7]: 61.9 ± 7.3 µM

SMILES: COc1cc(/C=C/c2ccc3c(c2)OCO3)oc(=O)c1 [Compound 16]
- EC50 ([1]; HepG2, 48 h): > 40 µM
- IC50 ([3]; Haemonchus contortus, 168 h): > 100 µM

SMILES: COc1cc(/C=C/c2cccc(C#N)c2)oc(=O)c1 [Compound 17]
- EC50 [1, 5]: > 40 µM
- IC50 [3, 6]: > 100 µM

SMILES: COC(=O)c1cccc(/C=C/c2cc(OC)cc(=O)o2)c1 [Compound 18]
- EC50 [1, 5]: > 40 µM
- IC50 [3, 6]: > 100 µM

SMILES: COc1cc(/C=C/c2ccc(OC)nc2)oc(=O)c1 [Compound 19]
- EC50 [1, 5]: > 40 µM
- IC50 [3, 6]: > 100 µM
- Anthelmintic activity in the larval development assay (in words) [3]: inactive at the highest concentration tested

SMILES: C[C@](C#N)(COc1cc(C#N)ccc1C(F)(F)F)NC(=O)c1ccc(SC(F)(F)F)cc1 [Monepantel, monepantel, reference compound]
- IC50 [3, 6]: 0.07 ± 0.01 µM

SMILES: CO/N=C1\C[C@]2(C[C@@H]3C[C@@H](C/C=C(\C)C[C@@H](C)/C=C/C=C4\CO[C@@H]5[C@H](O)C(C)=C[C@@H](C(=O)O3)[C@]45O)O2)O[C@H](/C(C)=C/C(C)C)[C@H]1C [Moxidectin, moxidectin, reference compound]
- IC50 [3, 6]: 0.02 µM

SMILES: COC1=CC(=O)O[C@@H](CCc2ccccc2)C1 [dihydrokavain, reference compound]
- Toxicity on MCF10A cells [2]: limited toxicity
- Phenotype induced in treated larvae [4]: lethal ‘evisceration’ (Evi) phenotype
- IC50 [4]: 208 µM
